Test results reported in US11014911B2, “CDK2 inhibitors” (Pfizer Inc., priority 2019, dated 2021).
Like-named read-outs stand apart in the source and are kept apart here.

Tests used:
[1] = target: CDK2/Cyclin E1 full length (Homo sapiens (Human), UniProt P24941); assay: CDK2/Cyclin E1 full length mobility shift assay; format: biochemical
GSK3β (H350L) [2] = target: T1, GSK3β (H350L) (Homo sapiens (Human), UniProt P49841); assay: biochemical; conditions: GSK3β Ki (nM)
Protocol: (§1) The assay was initiated with the addition of ATP, following 15 minutes pre-incubation of enzyme and inhibitor at room temperature in the reaction mixture. The reaction was stopped after 30 minutes at room temperature by the addition of 50 μL of 80 mM EDTA.

GSK3β (H350L) [3] = target: T1, GSK3β (H350L); conditions: read-out: GSK3β Ki
Protocol: as §1

T1 sequence (P49841 whole entry, stated change not applied): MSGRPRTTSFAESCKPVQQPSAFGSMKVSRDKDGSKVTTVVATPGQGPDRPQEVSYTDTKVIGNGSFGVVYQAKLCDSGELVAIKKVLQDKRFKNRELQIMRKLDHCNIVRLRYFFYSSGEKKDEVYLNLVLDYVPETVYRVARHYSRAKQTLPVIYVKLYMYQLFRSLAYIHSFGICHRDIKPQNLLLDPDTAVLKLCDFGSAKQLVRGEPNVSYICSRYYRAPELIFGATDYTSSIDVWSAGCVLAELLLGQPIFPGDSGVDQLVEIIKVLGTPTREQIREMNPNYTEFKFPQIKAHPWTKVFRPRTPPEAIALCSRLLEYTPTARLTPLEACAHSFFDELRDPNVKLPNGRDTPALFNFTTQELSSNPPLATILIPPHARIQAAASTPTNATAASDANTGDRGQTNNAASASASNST

Structure (SMILES)	Ki [1]	Ki (GSK3β (H350L) [2])	Ki (GSK3β (H350L) [3])
Cc1cnc(CC(=O)Nc2cc([C@H]3CC[C@@H](OC(=O)NC(C)CC(F)(F)F)C3)[nH]n2)o1 (single isomer, unassigned) [Example 82]	0.19 nM	12.6 nM	–
Cc1ccc(CC(=O)Nc2cc([C@H]3CC[C@@H](OC(=O)NC(C)C(C)(F)F)C3)[nH]n2)cn1 (single isomer, unassigned) [Example 389]	0.83 nM	18.3 nM	–
CC(CC(F)(F)F)NC(=O)O[C@@H]1CC[C@H](c2cc(NC(=O)c3ccnn3CCN(C)C)[nH]n2)C1 (single isomer, unassigned) [Example 410]	0.42 nM	55.5 nM	–
Cc1ncc(CC(=O)Nc2cc([C@H]3CC[C@@H](OC(=O)NC(C)CC(F)(F)F)C3)[nH]n2)s1 (single isomer, unassigned) [Example 79]	0.54 nM	16.5 nM	–
CC[C@H](C)NC(=O)O[C@@H]1CC[C@H](c2cc(NC(=O)c3ccnc4ncsc34)n[nH]2)C1 [Example 43]	0.04 nM	–	45.4 nM
CC[C@H](C)NC(=O)O[C@@H]1CC[C@H](c2cc(NC(=O)c3ccnn3C)n[nH]2)C1 [Example 42]	0.05 nM	–	34.4 nM
COCc1cc(C(=O)Nc2cc([C@H]3CC[C@@H](OC(=O)N[C@@H](C)C4CC4)C3)[nH]n2)n(C)n1 [Example 104]	0.17 nM	–	> 47.6 nM
CC[C@H](C)NC(=O)O[C@@H]1CC[C@H](c2cc(NC(=O)Cc3cc(O)ncc3S(C)(=O)=O)n[nH]2)C1 [Example 52]	0.2 nM	–	10.9 nM
CC[C@H](C)NC(=O)O[C@@H]1CC[C@H](c2cc(NC(=O)Cc3ccccc3S(=O)(=O)NC)n[nH]2)C1 [Example 374, (1R,3S)-3-[3-({[2-(methylsulfamoyl)phenyl]acetyl}amino)-1H-pyrazol-5-yl]cyclopentyl (2S)-butan-2-ylcarbamate]	0.32 nM	–	10.8 nM
Cc1cnc(CC(=O)Nc2cc([C@H]3CC[C@@H](OC(=O)NC4(CC(F)(F)F)CC4)C3)[nH]n2)cn1 [Example 455, (1R,3S)-3-(3-{[(5-methylpyrazin-2-yl)acetyl]amino}-1H-pyrazol-5-yl)cyclopentyl [1-2,2,2-trifluoroethyl)cyclopropyl] carbamate]	0.47 nM	–	21.3 nM
CC[C@H](C)NC(=O)O[C@@H]1CC[C@H](c2cc(NC(=O)Cc3cncc(C)n3)n[nH]2)C1 [Example 336, (1R,3S)-3-(3-{[(6-methylpyrazin-2-yl)acetyl]amino}-1H-pyrazol-5-yl)cyclopentyl (2S)-butan-2-ylcarbamate]	0.39 nM	–	53.5 nM
CC[C@H](C)NC(=O)O[C@@H]1CC[C@H](c2cc(NC(=O)Cc3scnc3C)n[nH]2)C1 [Example 342, (1R,3S)-3-(3-{[(4-methyl-1,3-thiazol-5-yl)acetyl]amino}-1H-pyrazol-5-yl)cyclopentyl (2S)-butan-2-ylcarbamate]	0.74 nM	–	40 nM
COc1ncc(CC(=O)Nc2cc([C@H]3CC[C@@H](OC(=O)NC(C)C)C3)[nH]n2)s1 [Example 281, (1R,3S)-3-(3-{[(2-methoxy-1,3-thiazol-5-yl)acetyl]amino}-1H-pyrazol-5-yl)cyclopentyl propan-2-ylcarbamate]	0.33 nM	–	24.4 nM
CCN(C)C(=O)O[C@H]1CC[C@@H](c2cc(NC(=O)Cc3ccnc(OC)c3)n[nH]2)C1 [Example 241, (1S,3R)-3-(3-{[(2-methoxypyridin-4-yl)acetyl]amino}-1H-pyrazol-5-yl)cyclopentyl ethyl(methyl)carbamate]	1.04 nM	–	13.4 nM
CC[C@H](C)NC(=O)O[C@@H]1CC[C@H](c2cc(NC(=O)Cc3cncc(OC)n3)n[nH]2)C1 [Example 348, (1R,3S)-3-(3-{[(6-methoxypyrazin-2-yl)acetyl]amino}-1H-pyrazol-5-yl)cyclopentyl (2S)-butan-2-ylcarbamate]	0.59 nM	–	54.1 nM
COc1ccc(S(C)(=O)=O)c(CC(=O)Nc2cc([C@H]3CC[C@@H](OC(=O)NC4(C)CC4)C3)[nH]n2)c1 [Example 447, (1R,3S)-3-[3-({[5-methoxy-2-(methylsulfonyl)phenyl]acetyl}amino)-1H-pyrazol-5-yl]cyclopentyl (1-methylcyclopropyl)carbamate]	0.36 nM	–	> 47.6 nM
COCCn1nccc1C(=O)Nc1cc([C@H]2CC[C@@H](OC(=O)NC(C)C)C2)[nH]n1 [Example 278, (1R,3S)-3-[3-({[1-(2-methoxyethyl)-1H-pyrazol-5-yl]carbonyl}amino)-1H-pyrazol-5-yl]cyclopentyl propan-2-ylcarbamate]	0.52 nM	–	56.7 nM
Cc1ccc(CC(=O)Nc2cc([C@H]3CC[C@@H](OC(=O)NC4(C)CC4)C3)[nH]n2)nc1 [Example 424, (1R,3S)-3-(3-{[(5-methylpyridin-2-yl)acetyl]amino}-1H-pyrazol-5-yl)cyclopentyl (1-methylcyclopropyl)carbamate]	0.51 nM	–	14.4 nM
COc1cc(CC(=O)Nc2cc([C@H]3CC[C@@H](OC(=O)N[C@@H](C)[C@@H](C)F)C3)[nH]n2)ccn1 [Example 101]	0.28 nM	–	20.9 nM
Cc1cc(CC(=O)Nc2cc([C@@H]3CC[C@H](OC(=O)N[C@H]4CC[C@@H](O)CC4)C3)[nH]n2)ccn1 [Example 544, (1S,3R)-3-(3-{[(2-methylpyridin-4-yl)acetyl]amino}-1H-pyrazol-5-yl)cyclopentyl (cis-4-hydroxycyclohexyl)carbamate]	0.54 nM	–	1.96 nM
CC[C@H](C)CNC(=O)O[C@@H]1CC[C@H](c2cc(NC(=O)Cc3ccno3)n[nH]2)C1 [Example 415, (1R,3S)-3-{3-[(1,2-oxazol-5-ylacetyl)amino]-1H-pyrazol-5-yl}cyclopentyl[(2S)-2-methylbutyl]carbamate]	1.48 nM	–	26.4 nM

More lines, now with the values ahead:

Ki [1]	Ki (GSK3β (H350L) [2])	Ki (GSK3β (H350L) [3])	Structure (SMILES)
0.19 nM	80.7 nM	–	CC1(NC(=O)O[C@@H]2CC[C@H](c3cc(NC(=O)Cc4ccccc4)n[nH]3)C2)CCOC1 (single isomer, unassigned) [Example 124]
0.07 nM	13.8 nM	–	CCC1(C)CCN1C(=O)O[C@@H]1CC[C@H](c2cc(NC(=O)Cc3cc(C)no3)n[nH]2)C1 (single isomer, unassigned) [Example 603]
0.47 nM	–	12.2 nM	Cc1cc(CC(=O)Nc2cc([C@H]3CC[C@@H](OC(=O)N4[C@@H](C)COC[C@@H]4C)C3)[nH]n2)on1 [Example 648, (1R,3S)-3-(3-{[(3-methyl-1,2-oxazol-5-yl)acetyl]amino}-1H-pyrazol-5-yl)cyclopentyl (3S,5S)-3,5-dimethylmorpholine-4-carboxylate]
0.49 nM	–	10.6 nM	Cc1cc(CC(=O)Nc2cc([C@H]3CC[C@@H](OC(=O)N(C)C(C)C)C3)[nH]n2)on1 [Example 289, (1R,3S)-3-(3-{[(3-methyl-1,2-oxazol-5-yl)acetyl]amino}-1H-pyrazol-5-yl)cyclopentyl methyl(propan-2-yl)carbamate]
0.33 nM	–	31.2 nM	CC[C@H](C)NC(=O)O[C@@H]1CC[C@H](c2cc(NC(=O)Cc3cnc(C)cn3)n[nH]2)C1 [Example 34]
0.19 nM	–	11.7 nM	CC1(C)CCCN1C(=O)O[C@@H]1CC[C@H](c2cc(NC(=O)Cc3ccon3)n[nH]2)C1 [Example 135]
0.39 nM	–	7.32 nM	Cc1cnc(CC(=O)Nc2cc([C@H]3CC[C@@H](OC(=O)N4CCC4(C)C)C3)[nH]n2)cn1 [Example 601, (1R,3S)-3-(3-{[(5-methylpyrazin-2-yl)acetyl]amino}-1H-pyrazol-5-yl)cyclopentyl 2,2-dimethylazetidine-1-carboxylate]
1.08 nM	–	3.39 nM	COc1ncc(CC(=O)Nc2cc([C@H]3CC[C@@H](OC(=O)N4CCOC[C@H]4C)C3)[nH]n2)s1 [Example 647, (1R,3S)-3-(3-{[(2-methoxy-1,3-thiazol-5-yl)acetyl]amino}-1H-pyrazol-5-yl)cyclopentyl (3R)-3-methylmorpholine-4-carboxylate]
0.43 nM	–	19 nM	CCCNC(=O)O[C@H]1CC[C@@H](c2cc(NC(=O)Cc3cc(C)no3)n[nH]2)C1 [Example 177, (1S,3R)-3-(3-{[(3-methyl-1,2-oxazol-5-yl)acetyl]amino}-1H-pyrazol-5-yl)cyclopentyl propylcarbamate]
0.28 nM	–	14.9 nM	Cc1cc(CC(=O)Nc2cc([C@H]3CC[C@@H](OC(=O)N4[C@@H](C)CC[C@@H]4C)C3)[nH]n2)on1 [Example 638, (1R,3S)-3-(3-{[(3-methyl-1,2-oxazol-5-yl)acetyl]amino}-1H-pyrazol-5-yl)cyclopentyl (2S,5S)-2,5-dimethylpyrrolidine-1-carboxylate]
0.25 nM	–	6.87 nM	Cc1cnc(CC(=O)Nc2cc([C@H]3CC[C@@H](OC(=O)N4CCC4(C)C)C3)[nH]n2)o1 [Example 147]
0.22 nM	–	17.8 nM	Cc1cnc(CC(=O)Nc2cc([C@H]3CC[C@@H](OC(=O)NC4(C)CCC4)C3)[nH]n2)o1 [Example 118]
0.53 nM	–	16.3 nM	Cc1cnc(CC(=O)Nc2cc([C@H]3CC[C@@H](OC(=O)N4CCC[C@@H]4C)C3)[nH]n2)o1 [Example 635, (1R,3S)-3-(3-{[(5-methyl-1,3-oxazol-2-yl)acetyl]amino}-1H-pyrazol-5-yl)cyclopentyl (2S)-2-methylpyrrolidine-1-carboxylate]
0.07 nM	–	3.47 nM	COc1cc(CC(=O)Nc2cc([C@H]3CC[C@@H](OC(=O)N4CCC4(C)C)C3)[nH]n2)ccn1 [Example 146]
1.62 nM	–	39.9 nM	O=C(Cc1ccno1)Nc1cc([C@H]2CC[C@@H](OC(=O)NC3CCCC3)C2)[nH]n1 [Example 460, (1R,3S)-3-{3-[(1,2-oxazol-5-ylacetyl)amino]-1H-pyrazol-5-yl}cyclopentyl cyclopentylcarbamate]
0.75 nM	–	5.35 nM	CCN(C)C(=O)O[C@H]1CC[C@@H](c2cc(NC(=O)Cc3ccc(OC)nc3)n[nH]2)C1 [Example 243, (1S,3R)-3-(3-{[(6-methoxypyridin-3-yl)acetyl]amino}-1H-pyrazol-5-yl)cyclopentyl ethyl(methyl)carbamate]
